# From paper PMC5617480 (Oncotarget, 2017)
# How the values were obtained:
# BEL-7402 xenograft = assay: In vivo tumor growth inhibition, BEL-7402 xenograft model; settings: BEL-7402 model; for Average tumor weight (mean ± SD g) / Tumor volume (End) / Body weight (End) / RBW (%) (End): day 18; for inhibition in weight: p<0.05
# Description: In vivo anticancer efficacy of chiral platinum(II) complex 6 was evaluated using BEL-7404 and BEL-7402 xenograft mouse models. BEL-7404 and BEL-7402 cells were injected into nude mice. The mice were randomized into the control group, complex 6-treated group, and the positive control group (n = 6/group). When the volume of tumor was about 80 mm^3, complex 6 was given at a high (8 mg/kg) and low (4 mg/kg) dosage daily for 18 days, 5-FU (20 mg/kg every two days) and Cisplatin (2 mg/kg every two days) were used as a positive control in the BEL-7404 and BEL-7402 xenograft model, respectively.
# To evaluate the vivo anticancer efficacy of complex 6, BEL-7404 and BEL-7402 xenograft mouse models (BALB/c nude mice, female for BEL-7404 model, 17–20 g, 6–7 weeks old; male for BEL-7402 model, 18-21 g, 6–7 weeks old) were used. Furthermore, animal used, maximum tolerated dose (MTD) analysis, acute toxicity studies and antitumor activity toward BEL-7404 and BEL-7402 models in vivo of complex 6, was similar to Chen reported.
# H21T (3.5 pmol; 5’-G [T AG ] -3’), primer TS (18 pmol; tumor tissue were cut into about 1.5 mm3 small pieces, and […]
# 5’-[…]-3’), KCl (63 mM), then transplanted into the right flank of nude mice. When EGTA (1 mM), MgCl (1.5 mM), Tween-20 (0.005%), the average tumors reach a volume of about 80 mm3, the […]
# primer NT (7.5 pmol; 5’-[…]-3’), mice were randomized into 4 groups (n=6), received the […]
# TSNT internal control (0.01 amol; 5’-[…] following treatments: (a) control, received saline solvent; […]
# -3’), primer (b) complex 6 at doses of 8.0 mg/kg daily (dissolve in […]
# Cxext (22.5 pmol; 5’-[…] saline, iv); (c) complex 6 at doses of 4.0 mg/kg daily; […]
# […]-3’), Taq DNA polymerase (2.5 U), and (d) in BEL-7404 model, 5-fluorouracil (5-Fu) as positive telomerase (100 ng). Complexes or/and distilled water control at 20 mg/kg per two days (dissolve in saline, iv); was added ([…]). PCR was performed in an Eppendorf in BEL-7402 model, cisplatin as positive control at 2 mg/ Master cycler equipped with a hot lid and incubated for kg per two days (dissolve in saline, iv).
# 30.0 min at 30 °C, followed by 92 °C 30 s, 52 °C 30 s, The tumor volumes and body weight was monitored and 72°C 30 s for 30.0 cycles. After amplification, 8.0 every 3 days, The tumor volumes were estimated by […] loading buffer (5×TBE buffer, 0.2% xylene cyanol, measuring the two dimensions of the tumors using caliper and 0.2% bromophenol blue ) were added to the reaction. and calculated by the formula 1 [1, 6, 14]:
# An […] of aliquot was loaded onto a nondenaturing V = (length × width2)/2(1) acrylamide gel (19:1, 16%) in 1×TBE buffer and resolved at 200.0 V for 1.0 h. Gels were fixed and then stained with On day 18, the mice were sacrificed, and tumor AgNO3 [8–11]. tissue were dissected out and weighted, tumor growth inhibition rate calculated using formulas 2 and 3 [1, 6,
# In order to verify whether complexes 4–6 can TGI (%) = (ΔVc − ΔVt)/ΔVc×100%(2) directly regulate c-myc promoter (Pu27) and the IR(%) = (Wc − Wt)/Wc×100%(3) expression of hTRET in BEL-7404 cells, consequently Where ΔVt = tumor volumefinal −tumor volumeinitial inhibiting the telomerase function, we constructed EGFP for compound treated group, ΔVc=tumor volumefinal − and c-myc gene vectors according to those illustrated tumor volumeinitial for vehicle control group; Wt and Wc in Chalfie, Chen and He previous work. The detailed mean the average tumor weight of complex-treated and procedures for the construct of gene (c-myc and EGFP vehicle controlled group respectively. genes) vectors, and the method of transfection assays REFERENCES have been reported by Chalfie, Chen and He [1, 6, 9, 12,
# KM mice = assay: Acute toxicity studies, single dose; type: in vivo; settings: for Death (%) on day 14 / No. of death mice, Five-fourteen day / No. of death mice, Four day / No. of death mice, One day / No. of death mice, Three day / No. of death mice, Two day / Total death: 10 animals
# Description: We further evaluated the safety of chiral platinum(II) complex 6 by using KM mice via the tail vein injection with a single dose of complex 6 at 15, 12, 9.6 and 7.8 mg/kg, respectively. After 14 days, the mortality rate of mice was calculated (Supplementary Figure 31 and Supplementary Table 10). […] However, at higher doses (>7.8 mg/kg), death of mice occurred. Thus, the doses of 7.8 mg/kg of complex 6 were employed in the further in vivo experiment.
# mice = assay: In vivo toxicity of multiple doses; settings: monitored another week
# Description: We then assessed the in vivo toxicity of multiple doses of complex 6. The mice was treated with complex 6 at 7.8 mg/kg daily or per two day by iv injection up to 7 days, and then monitored for another week.
# [1] = Cisplatin 2.0 mg/kg per two days iv
# [2] = single tail vein dose 7.8 mg/kg
# [3] = single tail vein dose 9.6 mg/kg
molecule,measurement,setting,value
"N.N.[Cl][Pt][Cl] [cisplatin, reference compound]",Tumor volume (start),BEL-7402 xenograft; [1],78.6±37.7 mm3
same,Average tumor weight (mean ± SD g),BEL-7402 xenograft; [1],0.38 ± 0.18 g
same,Tumor volume (End),BEL-7402 xenograft; [1],329.9±155.2 mm3
cis-[PtCl2(S-(–)-FOA)] [complex 6],inhibition in weight,BEL-7402 xenograft; 4 mg/kg daily for 18 days,32.9%
same,inhibition in weight,BEL-7402 xenograft; 8 mg/kg daily for 18 days,47.1%
same,Body weight (start),BEL-7402 xenograft; 6 4.0 mg/kg daily iv,19.1 ± 1.6 g
same,Tumor volume (start),BEL-7402 xenograft; 6 4.0 mg/kg daily iv,78.7±58.4 mm3
same,Average tumor weight (mean ± SD g),BEL-7402 xenograft; 6 4.0 mg/kg daily iv,0.84 ± 0.39 g
same,Body weight (End),BEL-7402 xenograft; 6 4.0 mg/kg daily iv,22.3 ± 1.3 g
same,RBW (%) (End),BEL-7402 xenograft; 6 4.0 mg/kg daily iv,117.7±6.3%
same,Tumor volume (End),BEL-7402 xenograft; 6 4.0 mg/kg daily iv,648.8±242.1 mm3
same,TGI (%),"BEL-7402 xenograft; 6 4.0 mg/kg daily iv, day 18, by tumor volume",32.9%
same,Inhibition of tumor growth (%),"BEL-7402 xenograft; 6 4.0 mg/kg daily iv, day 18, by tumor weight",29.4%
same,Body weight (start),BEL-7402 xenograft; 6 8.0 mg/kg daily iv,20.2 ± 0.7 g
same,Tumor volume (start),BEL-7402 xenograft; 6 8.0 mg/kg daily iv,79.4±28.4 mm3
same,Average tumor weight (mean ± SD g),BEL-7402 xenograft; 6 8.0 mg/kg daily iv,0.67 ± 0.46 g
same,Body weight (End),BEL-7402 xenograft; 6 8.0 mg/kg daily iv,23.4 ± 1.4 g
same,RBW (%) (End),BEL-7402 xenograft; 6 8.0 mg/kg daily iv,115.5±4.6%
same,Tumor volume (End),BEL-7402 xenograft; 6 8.0 mg/kg daily iv,521.0±319.9 mm3
same,Death (%) on day 14,KM mice; [2],0%
same,"No. of death mice, Five-fourteen day",KM mice; [2],0
same,"No. of death mice, Four day",KM mice; [2],0
same,"No. of death mice, One day",KM mice; [2],0
same,"No. of death mice, Three day",KM mice; [2],0
same,"No. of death mice, Two day",KM mice; [2],0
same,Total death,KM mice; [2],0
same,acute toxicity finding,"KM mice; single tail vein dose 7.8 mg/kg, 14 days",did not kill any animal or cause any abnormality
same,Death (%) on day 14,KM mice; [3],10%
same,"No. of death mice, Five-fourteen day",KM mice; [3],0
same,"No. of death mice, Four day",KM mice; [3],0
same,"No. of death mice, One day",KM mice; [3],0
same,"No. of death mice, Three day",KM mice; [3],0
same,"No. of death mice, Two day",KM mice; [3],1
same,Total death,KM mice; [3],1
same,Death (%) on day 14,KM mice; single tail vein dose 12 mg/kg,40%
same,"No. of death mice, Five-fourteen day",KM mice; single tail vein dose 12 mg/kg,0
same,"No. of death mice, Four day",KM mice; single tail vein dose 12 mg/kg,0
same,"No. of death mice, One day",KM mice; single tail vein dose 12 mg/kg,3
same,"No. of death mice, Three day",KM mice; single tail vein dose 12 mg/kg,1
same,"No. of death mice, Two day",KM mice; single tail vein dose 12 mg/kg,1
same,Death (%) on day 14,KM mice; single tail vein dose 15 mg/kg,90%
same,"No. of death mice, Five-fourteen day",KM mice; single tail vein dose 15 mg/kg,0
same,"No. of death mice, Four day",KM mice; single tail vein dose 15 mg/kg,0
same,"No. of death mice, One day",KM mice; single tail vein dose 15 mg/kg,7
same,"No. of death mice, Three day",KM mice; single tail vein dose 15 mg/kg,1
same,"No. of death mice, Two day",KM mice; single tail vein dose 15 mg/kg,1
same,Total death,KM mice; single tail vein dose 15 mg/kg,9
same,safety of multiple doses,mice; 7.8 mg/kg daily iv up to 7 days,safe for mice
same,body weight change,mice; 7.8 mg/kg daily or per two day iv up to 7 days,Moderate body weight increase
